Measured values: US20200165257A1, “INHIBITORS OF PHOSPHOINOSITIDE 3-KINASE AND HISTONE DEACETYLASE FOR TREATMENT OF CANCER” (THE UNITED STATES OF AMERICA, AS REPRESENTED BY THE …, priority 2017, published 2020)

Columns and labels:
Leukemia Cell Line SR = assay: cells; format: cell-based; settings: Homo sapiens; SR; single dose, 10 uM compound concentration; read-out: inhibition of proliferation
HDAC6 = biological target: T1, HDAC6 (Homo sapiens, UniProt Q9UBN7); assay: HDAC Fluorescent Activity Assay; format: biochemical; settings: symbols ++ / +; read-out: HDAC6 Inhibition Activity (IC50 class)
T1 sequence (Q9UBN7 1-1215): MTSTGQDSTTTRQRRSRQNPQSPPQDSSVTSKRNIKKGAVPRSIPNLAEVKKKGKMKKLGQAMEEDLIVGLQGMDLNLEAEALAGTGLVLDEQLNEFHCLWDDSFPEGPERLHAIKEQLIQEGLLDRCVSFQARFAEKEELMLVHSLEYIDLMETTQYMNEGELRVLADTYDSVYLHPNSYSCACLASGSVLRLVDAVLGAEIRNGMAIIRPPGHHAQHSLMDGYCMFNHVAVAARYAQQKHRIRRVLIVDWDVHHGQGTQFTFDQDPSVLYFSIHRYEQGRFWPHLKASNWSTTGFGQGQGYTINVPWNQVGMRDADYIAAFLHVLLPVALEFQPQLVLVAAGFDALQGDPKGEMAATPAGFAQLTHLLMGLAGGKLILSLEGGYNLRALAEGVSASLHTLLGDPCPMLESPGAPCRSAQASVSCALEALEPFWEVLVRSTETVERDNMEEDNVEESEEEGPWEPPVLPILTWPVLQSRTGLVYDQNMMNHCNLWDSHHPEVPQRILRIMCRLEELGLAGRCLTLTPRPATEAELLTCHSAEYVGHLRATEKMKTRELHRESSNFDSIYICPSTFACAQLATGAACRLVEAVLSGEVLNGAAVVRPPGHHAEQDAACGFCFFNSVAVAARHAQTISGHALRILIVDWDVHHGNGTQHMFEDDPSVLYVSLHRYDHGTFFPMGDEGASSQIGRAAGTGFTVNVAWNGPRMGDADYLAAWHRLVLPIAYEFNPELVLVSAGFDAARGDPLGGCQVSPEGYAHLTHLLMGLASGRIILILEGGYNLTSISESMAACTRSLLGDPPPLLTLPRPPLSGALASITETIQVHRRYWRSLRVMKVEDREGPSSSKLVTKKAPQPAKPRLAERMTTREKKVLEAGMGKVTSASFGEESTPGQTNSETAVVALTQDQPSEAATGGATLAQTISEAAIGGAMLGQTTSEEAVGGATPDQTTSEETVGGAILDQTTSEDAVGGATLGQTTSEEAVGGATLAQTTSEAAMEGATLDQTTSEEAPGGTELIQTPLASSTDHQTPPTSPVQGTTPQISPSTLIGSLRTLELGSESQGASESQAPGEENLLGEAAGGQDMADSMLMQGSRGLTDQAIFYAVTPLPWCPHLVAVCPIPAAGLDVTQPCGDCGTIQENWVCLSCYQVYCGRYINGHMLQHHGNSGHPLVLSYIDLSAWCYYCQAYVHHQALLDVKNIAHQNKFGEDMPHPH

[1] = system: Leukemia Cell Line HL-60(TB); format: cell-based; settings: Homo sapiens; HL-60(TB); single dose, 10 uM compound concentration; read-out: inhibition of proliferation

- IC50 (HDAC6): < 100 nM
Compound: CC[C@H](Nc1nc(N)nc(C)c1C#N)c1nc2cccc(CN(C)c3ncc(C(=O)NO)cn3)c2c(=O)n1-c1ccccc1 [LII, (S)-2-(((2-(1-((2-amino-5-cyano-6-methylpyrimidin-4-yl)amino)propyl)-4-oxo-3-phenyl-3,4-dihydroquinazolin-5-yl)methyl)(methyl)amino)-N-hydroxypyrimidine-5-carboxamide]
- inhibition at 10 µM (Leukemia Cell Line SR): > 50%
- inhibition at 10 µM [1]: > 50%
